Experimental data as given in patent US20230013402A1, “REGENERATING FUNCTIONS AND PHENOTYPES OF CONNECTIVE TISSUE THROUGH NPAS2 SUPPRESSION” (The Regents of the University of California, priority 2019, published 2023).
“Also recorded” adds a separate entry of the source.

What was measured:
[1] = tested on: Npas2-LacZ reporter gene (Npas2 expression); assay: High throughput screening of FDA Approved Drug Library for Npas2-LacZ reporter expression; type: cell-based, mouse; conditions: Table 1
Text: Mouse MSC carrying Npas2-LacZ reporter gene, as described by Hassan N, et al., PLoS One. 2017; 12(8):e0183359, which is incorporated by reference herein in its entirety, was immortalized using SV40 in order to accommodate a large-scale HTS. […] This cell system was used to screen FDA Approved Drug Library (1120 compounds). The same library was also screened for cell viability by Calcein AM Hoechst 33342 staining Cell migration assays using the Oris™ Pro Cell Migration Assay plate, as described by Joy M E et al., PloS one. 2014; 9(2):e88350, which is incorporated by reference herein in its entirety, was used for a high-throughput migration assay using human skin fibroblasts
The combined Z score was used to identify hit compounds (Table 1).

[2] = tested on: osteocalcin (Ocn), osteopontin (Opn), Bmal1 expression; assay: Real time RT-PCR of osteogenic and clock genes in BMSC (MSC); type: cell-based, mouse
Text: FIGS. 7A-7B show the effect of Reserpine on bone marrow stromal cells osteogenic differentiation. […] Bars: Tukey analysis with p<0.05. […] The expression values were normalized with day 0 RNA.
FIGS. 11A-11D(b) show results of in vitro biological assays of Npas2 suppressing compound Dwn1 (Reserpine).
Reserpine was selected and its effect on bone marrow stromal cells (BMSC) was characterized for osteogenic differentiation.
The small molecule compound that scored the best combined z score in Example 2, Dwn1 (Reserpine) was selected for in vitro biological assays. […] BMP-2 has been used as a gold standard for accelerated osteogenic differentiation of MSC (48, 49). […] The expression of core clock gene Bmal1 was not affected by Dwn1 (FIG. 11C). Dwn1 increased in vitro mineralization of Npas2+/− MSC, but not of Npas2−/− MSC (FIG. 11D), implying that the effect of Dwn1 (Reserpine) was facilitated primarily by Npas2 suppression.

[3] = tested on: ligature-induced periodontitis; assay: Modified mouse ligature-induced periodontitis model (ligature removed at Day 14, evaluation at D28); type: in vivo; conditions: topical to palatal gingiva once a week, listed as Dwn1
Text: FIGS. 12A-12H show the effect of Dwn1 in the modified ligature-induced periodontitis in mice.
The selected highest hit compound Dwn1 (Reserpine) of Example 2 was applied to the well established ligature-induced periodontitis model with modification. After periodontitis was established at Day 14, the ligature was revoved from mouse molar mimicking non-invasive periodontits treatment: scaling and root planing (SRP) (FIGS. 12A-12D). Dwn1 was formulated in ABR LLC's propritery trans-epithelial deformable nano-scale vesicle (DNV) (57) and topically adminstered to the palatal gingival tissue once a week (FIG. 12E). […] The in vivo regenerative efficacy of Dwn1 (Reserpine) was strongly indicated.
From FDA Approved Drug Library (1120 compounds) and LOPAC Library (1280 compounds), a list of chemical compounds that modulated Npas2-LacZ expression was identified. […] Dwn1 was formulated for topical application to palatal gingiva. After 14 days of periodontitis induction, the ligature was removed and Dwn1 was topically applied to the palatal gingiva once a week (FIG. 16A).

fibroblasts = assay: In vitro wound healing: scratch fibroblast migration and collagen gel contraction; type: cell-based, mouse; conditions: listed as Dwn1
Experimental: The in vitro wound healing ability of Dwn1 was tested using a previously described method.
Fibroblasts were seeded into a 6-well plate and were synchronized as above. After 2 hr, scratch lines were created with a 20 μL plastic pipette and were washed with medium (n=5 per group). These scratched areas were captured by time-lapse photomicrography every hour from 0 to 24 hr. The number of migrated cells into the scratched area was counted at 12 and 24 hr and compared by one-way ANOVA with post hoc Holm test.
The floating collagen gel contraction assay was performed following the previously established protocol with some modifications (Ngo et al., 2006). A 500 μL aliquot of collagen gel mixture (Collagen Type I, Corning, Manassas, Va.) containing fibroblasts (50,000 cells) was applied to a 24-well plate (n=5 in each group) and placed at room temperature for 20 min. The solidified gels were transferred to a 100 mm diameter dish and cultured (37_C, 5% CO2 in a humidified incubator). The gel images were scanned by a scanner at 0, 6, 12, 24, 48, and 72 hr. The collagen gel area at each time point was measured (NIH ImageJ ver.1.51) and compared by two-way ANOVA, followed by the Tukey test at each time point.
As described herein, a small molecule inhibitor of Neuronal PAS domain 2 (Npas2), Dwn1, improves wound healing and minimizes scarring.

skin split wound = assay: Skin split (linear) wound/scar model with suture; type: in vivo, mouse; conditions: Dwn1 in 10% DMSO with suture vs suture only and suture plus vehicle
Text: To test in vivo wound healing using Dwn1, a 1.5 by 10 millimeter skin split model was created with a suture in the middle and three groups were designed. This model is similar to a clinical situation of a skin wound. When the skin was sutured only, visible wound healing was not effective. A suture and vehicle control with 10% DMSO, in the clinical observation, wound healing was visibly better than suture only. It is hypothesized that the moisture of vehicle may improve wound healing.
Masson trichrome staining was used to stain collagen deposition blue. Thick blue collagen deposition was found not only in granulation tissue but also in the peripheral wound. The histological staining for the vehicle control with 10% DMSO, was similar to control. Thick collagen deposition was observed.
Vertical wounds (10×1.5 mm) were made on both left and right sides of the back of a mouse with a double-bladed scalpel. One ligation was performed at the center of the wound with 5-0 nylon suture. (FIG. 33A) Visual Analogue Scale (VAS) was scored everyday postoperatively until postoperative day 7 using gross images of the wounds/scars (FIG. 33A), and postoperative gross images of the wounds/scars were measured with a ruler. […] (FIG. 33D) Scar Index was evaluated using HE stained slices. (FIG. 33E) The % area of fibrous tissue was evaluated using MT stained slices. […]

COC(=O)[C@H]1[C@H]2C[C@@H]3c4[nH]c5cc(OC)ccc5c4CCN3C[C@H]2C[C@@H](OC(=O)c2cc(OC)c(OC)c(OC)c2)[C@@H]1OC [Reserpine]
NPAS2 Z Score ([1]; HTS of FDA Drug Library): −2.57 | NPAS Z × ViabilityZ ([1]; combined Z score (product)): −10.77 | Expression of core clock gene Bmal1 ([2]; MSC, listed as Dwn1): did not affect; also recorded: not affected | Expression of osteocalcin (Ocn) ([2]; day 21): significantly increased | Expression of osteopontin (Opn) ([2]; day 21): mildly affected | Expression of osteocalcin (Ocn) ([2]; day 21, listed as Dwn1): increased as early as D21; also recorded: accelerated expression | Gingival epithelium / gingival defect [3]: normalized gingival epithelium; also recorded: less visible | Alveolar bone regeneration (microCT bone height) ([3]; palatal side): increased bone height; also recorded: Alveolar bone regeneration was demonstrated; also recorded: alveolar bone loss was attenuated; also recorded: significant alveolar bone regeneration | Gingival/periodontal collagen with Sharpey's fibers ([3]; picrosirius red): gingival/PDL connective tissue reconstruction; also recorded: appeared to be reconstructed; also recorded: normalized Sirius red stained gingival collagen arrangement; also recorded: collagen fibers were reorganized | Collagen gel contraction (fibroblasts): accelerates | Fibroblast migration in scratch wound healing assay (fibroblasts): accelerates | Collagen deposition (Masson trichrome staining) (skin split wound): decreased excessive collage deposition; also recorded: very small area of collagen deposition | Split wound healing / scarring (skin split wound): improved split wound healing with minimal scarring; also recorded: best wound healing
